# Measurements published in patent US7820623B2 (priority 2006, dated 2010).
# Bridge positions count the residues as written; N and C are the ends. Peptide text beside a SMILES is read from it.
# How the values were obtained:
# [1] = system: thapsigargin-induced IL-2 production in human whole blood; settings: read-out: Analogue Activity (IC50) WB/IL-2
# human Kv1.3 = human Kv1.3 (Homo sapiens, UniProt P22001); assay type: cell-based; parameters: expressed in transfected cells
# [2] = system: thapsigargin-induced IFN-g production in human whole blood; assay type: cell-based; settings: read-out: Analogue Activity (IC50) WB/IFNg
# Sequence of human Kv1.3 (P22001 whole entry): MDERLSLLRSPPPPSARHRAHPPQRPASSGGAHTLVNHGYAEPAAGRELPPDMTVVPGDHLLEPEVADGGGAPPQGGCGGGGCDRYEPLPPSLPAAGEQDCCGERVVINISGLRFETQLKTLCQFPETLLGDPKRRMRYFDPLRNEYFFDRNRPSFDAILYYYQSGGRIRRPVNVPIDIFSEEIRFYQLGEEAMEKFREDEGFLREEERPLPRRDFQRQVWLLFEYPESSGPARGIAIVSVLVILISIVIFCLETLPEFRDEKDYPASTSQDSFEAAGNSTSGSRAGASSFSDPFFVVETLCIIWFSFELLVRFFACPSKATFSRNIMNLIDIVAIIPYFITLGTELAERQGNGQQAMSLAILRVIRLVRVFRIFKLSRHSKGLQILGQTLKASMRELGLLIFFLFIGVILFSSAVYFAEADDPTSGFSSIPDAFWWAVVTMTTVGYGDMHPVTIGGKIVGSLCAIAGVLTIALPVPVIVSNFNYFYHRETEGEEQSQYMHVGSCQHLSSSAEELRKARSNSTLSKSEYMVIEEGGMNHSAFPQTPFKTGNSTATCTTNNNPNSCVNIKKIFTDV
SMILES,IC50 [1],Kv1.3 Selectivity (= Kv1.1/Kv.3 IC50) (human Kv1.3),IC50 [2],IC50 (human Kv1.3; read-out: Kv1.3 (IC50))
"CC[C@H](C)[C@@H]1NC(=O)[C@H](CCCCN)NC(=O)[C@@H](NC(=O)[C@H](CCCCN)NC(=O)[C@@H](NC(=O)[C@H](CC(N)=O)NC(=O)[C@@H](NC(=O)[C@@H](NC(=O)[C@@H](NC(=O)CN)C(C)C)[C@@H](C)CC)[C@@H](C)CC)C(C)C)CSSC[C@@H]2NC(=O)[C@H](CCCCN)NC(=O)CNC(=O)[C@H](Cc3ccccc3)NC(=O)[C@H](CCCNC(=N)N)NC(=O)[C@H](CCSC)NC(=O)CNC(=O)[C@H](C)NC(=O)[C@H](CCCCN)NC(=O)[C@H](CCCCN)NC(=O)[C@@H]3CSSC[C@@H](C(=O)N[C@H](C(=O)N4CCC[C@H]4C(=O)N[C@@H](CCCCN)C(=O)O)[C@@H](C)O)NC(=O)[C@H](C)NC(=O)[C@H](CSSC[C@H](NC(=O)[C@H](CCC(N)=O)NC(=O)[C@H](CCCNC(=N)N)NC(=O)[C@H](CO)NC1=O)C(=O)N[C@@H](CC(C)C)C(=O)N[C@@H](CCC(=O)O)C(=O)N1CCC[C@H]1C(=O)N3)NC(=O)[C@H](CCCCN)NC(=O)CNC(=O)[C@H](CC(N)=O)NC(=O)[C@H](CCSC)NC2=O [H34A] (H-GVIINVKCKISRQCLEPCKKAGMRFGKCMNGKCACTPK-OH; disulfide 8-28, 14-33, 18-35)",0.0725 nM,797,0.0573 nM,–
"CC[C@H](C)[C@@H]1NC(=O)[C@H](CCCCN)NC(=O)[C@@H](NC(=O)[C@H](CCCCN)NC(=O)[C@@H](NC(=O)[C@H](CC(N)=O)NC(=O)[C@@H](NC(=O)[C@@H](NC(=O)[C@@H](NC(=O)CN)C(C)C)[C@@H](C)CC)[C@@H](C)CC)C(C)C)CSSC[C@@H]2NC(=O)[C@H](CCCCN)NC(=O)CNC(=O)[C@H](Cc3ccccc3)NC(=O)[C@H](CCCNC(=N)N)NC(=O)[C@H](CCSC)NC(=O)CNC(=O)[C@H](C)NC(=O)[C@H](CCCCN)NC(=O)[C@H](CCCCN)NC(=O)[C@@H]3CSSC[C@@H](C(=O)N[C@H](C(=O)N4CCC[C@H]4C(=O)N[C@@H](CCCCN)C(=O)O)[C@@H](C)O)NC(=O)[C@H](CCC(=O)O)NC(=O)[C@H](CSSC[C@H](NC(=O)[C@H](CCC(N)=O)NC(=O)[C@H](CCCNC(=N)N)NC(=O)[C@H](CO)NC1=O)C(=O)N[C@@H](CC(C)C)C(=O)N[C@@H](CCC(=O)O)C(=O)N1CCC[C@H]1C(=O)N3)NC(=O)[C@H](CCCCN)NC(=O)CNC(=O)[C@H](CC(N)=O)NC(=O)[C@H](CCSC)NC2=O [H34E] (H-GVIINVKCKISRQCLEPCKKAGMRFGKCMNGKCECTPK-OH; disulfide 8-28, 14-33, 18-35)",1.62 nM,30,2.38 nM,–
"CC[C@H](C)[C@@H]1NC(=O)[C@H](CCCCN)NC(=O)[C@@H](NC(=O)[C@H](CCCCN)NC(=O)[C@@H](NC(=O)[C@H](CC(N)=O)NC(=O)[C@@H](NC(=O)[C@@H](NC(=O)[C@@H](NC(=O)CN)C(C)C)[C@@H](C)CC)[C@@H](C)CC)C(C)C)CSSC[C@@H]2NC(=O)[C@H](C)NC(=O)CNC(=O)[C@H](Cc3ccccc3)NC(=O)[C@H](CCCNC(=N)N)NC(=O)[C@H](CCSC)NC(=O)CNC(=O)[C@H](C)NC(=O)[C@H](CCCCN)NC(=O)[C@H](CCCCN)NC(=O)[C@@H]3CSSC[C@@H](C(=O)N[C@H](C(=O)N4CCC[C@H]4C(=O)N[C@@H](CCCCN)C(=O)O)[C@@H](C)O)NC(=O)[C@H](Cc4c[nH]cn4)NC(=O)[C@H](CSSC[C@H](NC(=O)[C@H](CCC(N)=O)NC(=O)[C@H](CCCNC(=N)N)NC(=O)[C@H](CO)NC1=O)C(=O)N[C@@H](CC(C)C)C(=O)N[C@@H](CCC(=O)O)C(=O)N1CCC[C@H]1C(=O)N3)NC(=O)[C@H](CCCCN)NC(=O)CNC(=O)[C@H](CC(N)=O)NC(=O)[C@H](CCSC)NC2=O [K27A] (H-GVIINVKCKISRQCLEPCKKAGMRFGACMNGKCHCTPK-OH; disulfide 8-28, 14-33, 18-35)",1.23 nM,35,1.58 nM,–
"CC[C@H](C)[C@@H]1NC(=O)[C@H](CCCCN)NC(=O)[C@@H](NC(=O)[C@H](CCCCN)NC(=O)[C@@H](NC(=O)[C@H](CC(N)=O)NC(=O)[C@@H](NC(=O)[C@@H](NC(=O)[C@@H](NC(=O)CN)C(C)C)[C@@H](C)CC)[C@@H](C)CC)C(C)C)CSSC[C@@H]2NC(=O)[C@H](CCCCN)NC(=O)CNC(=O)[C@H](Cc3ccccc3)NC(=O)[C@H](CCCNC(=N)N)NC(=O)[C@H](CCSC)NC(=O)CNC(=O)[C@H](C)NC(=O)[C@H](CCCCN)NC(=O)[C@H](CCCCN)NC(=O)[C@@H]3CSSC[C@@H](C(=O)N[C@H](C(=O)N4CCC[C@H]4C(=O)N[C@@H](CCCCN)C(=O)O)[C@@H](C)O)NC(=O)[C@H](Cc4c[nH]cn4)NC(=O)[C@H](CSSC[C@H](NC(=O)[C@H](CCC(N)=O)NC(=O)[C@H](CCCNC(=N)N)NC(=O)[C@H](CO)NC1=O)C(=O)N[C@@H](CCC(=O)O)C(=O)N[C@@H](CCC(=O)O)C(=O)N1CCC[C@H]1C(=O)N3)NC(=O)[C@H](CCCCN)NC(=O)CNC(=O)[C@H](CC(N)=O)NC(=O)[C@H](CCSC)NC2=O [L15E] (H-GVIINVKCKISRQCEEPCKKAGMRFGKCMNGKCHCTPK-OH; disulfide 8-28, 14-33, 18-35)",0.785 nM,342,1.06 nM,–
"CC[C@H](C)[C@@H]1NC(=O)[C@H](CCCCN)NC(=O)[C@@H](NC(=O)[C@H](CCCCN)NC(=O)[C@@H](NC(=O)[C@H](CC(N)=O)NC(=O)[C@@H](NC(=O)[C@@H](NC(=O)[C@@H](NC(=O)CN)C(C)C)[C@@H](C)CC)[C@@H](C)CC)C(C)C)CSSC[C@@H]2NC(=O)[C@H](CCCCN)NC(=O)CNC(=O)[C@H](Cc3ccccc3)NC(=O)[C@H](CCCNC(=N)N)NC(=O)[C@H](CCSC)NC(=O)CNC(=O)[C@H](C)NC(=O)[C@H](CCCCN)NC(=O)[C@H](CCCCN)NC(=O)[C@@H]3CSSC[C@@H](C(=O)N[C@H](C(=O)N4CCC[C@H]4C(=O)N[C@@H](CCCCN)C(=O)O)[C@@H](C)O)NC(=O)[C@H](Cc4c[nH]cn4)NC(=O)[C@H](CSSC[C@H](NC(=O)[C@H](CCC(N)=O)NC(=O)[C@H](CCCNC(=N)N)NC(=O)[C@H](CO)NC1=O)C(=O)N[C@@H](CC(C)C)C(=O)N[C@@H](CCC(=O)O)C(=O)N1CCC[C@H]1C(=O)N3)NC(=O)[C@H](CCCCN)NC(=O)CNC(=O)[C@H](CC(N)=O)NC(=O)[C@H](C)NC2=O [M29A] (H-GVIINVKCKISRQCLEPCKKAGMRFGKCANGKCHCTPK-OH; disulfide 8-28, 14-33, 18-35)",0.447 nM,105,0.292 nM,0.033 nM
"CC[C@H](C)[C@@H]1NC(=O)[C@H](CCCCN)NC(=O)[C@@H](NC(=O)[C@H](CCCCN)NC(=O)[C@@H](NC(=O)[C@H](CC(N)=O)NC(=O)[C@@H](NC(=O)[C@@H](NC(=O)[C@@H](NC(=O)CN)C(C)C)[C@@H](C)CC)[C@@H](C)CC)C(C)C)CSSC[C@@H]2NC(=O)[C@H](CCCCN)NC(=O)CNC(=O)[C@H](Cc3ccccc3)NC(=O)[C@H](CCCNC(=N)N)NC(=O)[C@H](CCSC)NC(=O)CNC(=O)[C@H](C)NC(=O)[C@H](CCCCN)NC(=O)[C@H](CCCCN)NC(=O)[C@@H]3CSSC[C@@H](C(=O)N[C@H](C(=O)N4CCC[C@H]4C(=O)N[C@@H](CCCCN)C(=O)O)[C@@H](C)O)NC(=O)[C@H](Cc4c[nH]cn4)NC(=O)[C@H](CSSC[C@H](NC(=O)[C@H](CCC(N)=O)NC(=O)[C@H](CCCNC(=N)N)NC(=O)[C@H](CO)NC1=O)C(=O)N[C@@H](CC(C)C)C(=O)N[C@@H](CCC(=O)O)C(=O)N1CCC[C@H]1C(=O)N3)NC(=O)[C@H](CCCCN)NC(=O)CNC(=O)[C@H](CC(N)=O)NC(=O)[C@H](CCCNC(=N)N)NC2=O [M29R] (H-GVIINVKCKISRQCLEPCKKAGMRFGKCRNGKCHCTPK-OH; disulfide 8-28, 14-33, 18-35)",11.7 nM,30,7.68 nM,–
